Results taken from the NIST ThermoML archive (doi:10.1021/je700260f).

Details: 313.15 K, Liquid, Vibrating tube method

FC(C(F)(F)F)C(F)(F)F [1,1,1,2,3,3,3-heptafluoropropane]
Details | mass density [kg/m3]
6459 kPa | 1373.4
6490 kPa | 1373.6
6518 kPa | 1373.8
6545 kPa | 1374
6574 kPa | 1374.3
6602 kPa | 1374.5
6638 kPa | 1374.7
6666 kPa | 1374.8
6694 kPa | 1375.2
6718 kPa | 1375.4
6751 kPa | 1375.5
6776 kPa | 1375.7
6806 kPa | 1376
6835 kPa | 1376
6863 kPa | 1376.4
6883 kPa | 1376.7
6908 kPa | 1376.8
6938 kPa | 1376.9
6976 kPa | 1377.1
7006 kPa | 1377.4
7045 kPa | 1377.7
7079 kPa | 1377.9
7109 kPa | 1378.2
7139 kPa | 1378.3
7169 kPa | 1378.7
7198 kPa | 1378.8
7228 kPa | 1379
7266 kPa | 1379.4
7292 kPa | 1379.5
7326 kPa | 1379.7
7348 kPa | 1379.9
7382 kPa | 1380.1
7408 kPa | 1380.3
7438 kPa | 1380.5
7465 kPa | 1380.7
7501 kPa | 1380.9
7527 kPa | 1381.2
7556 kPa | 1381.4
7582 kPa | 1381.6
7612 kPa | 1381.8
7638 kPa | 1382.1
7677 kPa | 1382.3
7703 kPa | 1382.3
7742 kPa | 1382.8
7768 kPa | 1382.8
7798 kPa | 1383
7824 kPa | 1383.2
7851 kPa | 1383.5
7874 kPa | 1383.6
7910 kPa | 1383.8
7931 kPa | 1383.9
7958 kPa | 1384.2
7993 kPa | 1384.3
8020 kPa | 1384.6
8059 kPa | 1384.9
8094 kPa | 1385
8129 kPa | 1385.4
8156 kPa | 1385.5
8196 kPa | 1385.9
8223 kPa | 1386
8263 kPa | 1386.4
8295 kPa | 1386.4
8331 kPa | 1386.7
8367 kPa | 1387
8399 kPa | 1387.1
8430 kPa | 1387.3
8461 kPa | 1387.6
8497 kPa | 1387.9
8523 kPa | 1388.2
8564 kPa | 1388.3
8622 kPa | 1388.8
8654 kPa | 1388.8
8689 kPa | 1389.1
8720 kPa | 1389.4
8766 kPa | 1389.7
8798 kPa | 1390
8834 kPa | 1390.1
8861 kPa | 1390.3
8887 kPa | 1390.6
8915 kPa | 1390.6
8943 kPa | 1390.9
8979 kPa | 1391.1
9019 kPa | 1391.5
9044 kPa | 1391.5
9072 kPa | 1391.7
9097 kPa | 1391.9
9130 kPa | 1392.1
9160 kPa | 1392.2
9179 kPa | 1392.3
9214 kPa | 1392.6
9236 kPa | 1392.7
9263 kPa | 1393
9286 kPa | 1393.1
9320 kPa | 1393.4
9340 kPa | 1393.4
9367 kPa | 1393.6
9393 kPa | 1393.8
9419 kPa | 1394
9443 kPa | 1394
9465 kPa | 1394.3
9495 kPa | 1394.3
9518 kPa | 1394.6
9544 kPa | 1394.8
9564 kPa | 1394.9
9591 kPa | 1395
9619 kPa | 1395.3
9823 kPa | 1396.6
9856 kPa | 1396.8
9892 kPa | 1397
9921 kPa | 1397.3
9953 kPa | 1397.4
9987 kPa | 1397.4
10010 kPa | 1397.7
10062 kPa | 1398.1
10094 kPa | 1398.2
10123 kPa | 1398.4
10151 kPa | 1398.5
10183 kPa | 1398.9
10211 kPa | 1399.1
10247 kPa | 1399.1
10272 kPa | 1399.3
10301 kPa | 1399.5
10332 kPa | 1399.8
10361 kPa | 1400
10389 kPa | 1400
10421 kPa | 1400.3
10450 kPa | 1400.4
10482 kPa | 1400.8
10519 kPa | 1401
10547 kPa | 1401.1
10580 kPa | 1401.3
10609 kPa | 1401.5
10646 kPa | 1401.7
10680 kPa | 1401.9
10709 kPa | 1402.1
10743 kPa | 1402.3
10780 kPa | 1402.5
10813 kPa | 1402.7
10838 kPa | 1402.9
10871 kPa | 1403.1
10899 kPa | 1403.2
10928 kPa | 1403.5
10956 kPa | 1403.5
10981 kPa | 1403.7
11015 kPa | 1404.1
11048 kPa | 1404.2
11069 kPa | 1404.4
11102 kPa | 1404.4
11127 kPa | 1404.6
11164 kPa | 1404.9
11193 kPa | 1405
11222 kPa | 1405.3
11252 kPa | 1405.4
11278 kPa | 1405.5
11317 kPa | 1405.7
11360 kPa | 1405.9
11399 kPa | 1406.3
11424 kPa | 1406.4
11461 kPa | 1406.5
11486 kPa | 1406.8
11518 kPa | 1406.9
11544 kPa | 1407.2
11578 kPa | 1407.4
11628 kPa | 1407.6
11692 kPa | 1408
11726 kPa | 1408.2
11751 kPa | 1408.3
11788 kPa | 1408.5
11818 kPa | 1408.8
11860 kPa | 1408.9
11889 kPa | 1409.2
11927 kPa | 1409.3
11969 kPa | 1409.5
11998 kPa | 1409.7
12023 kPa | 1409.9
12048 kPa | 1410.1
12069 kPa | 1410.1
12099 kPa | 1410.3
12128 kPa | 1410.6
12165 kPa | 1410.9
12206 kPa | 1410.9
12231 kPa | 1411.1
12265 kPa | 1411.4
12294 kPa | 1411.4
12323 kPa | 1411.6
12344 kPa | 1411.8
12373 kPa | 1411.9
12407 kPa | 1412.1
12448 kPa | 1412.4
12477 kPa | 1412.4
12510 kPa | 1412.8
12532 kPa | 1412.9
12565 kPa | 1413.1
12616 kPa | 1413.4
12650 kPa | 1413.4
12689 kPa | 1413.8
12723 kPa | 1413.9
12749 kPa | 1414.1
12786 kPa | 1414.2
12813 kPa | 1414.5
12852 kPa | 1414.7
12888 kPa | 1414.9
12924 kPa | 1415.1
12959 kPa | 1415.3
12986 kPa | 1415.4
